Laboratory results as given in patent US20150265682A1, “THERAPEUTIC METHODS AND COMPOSITIONS FOR TREATING DIABETES” (Orient Europharma Co., Ltd., priority 2014, published 2015).

What was measured:
[1] = system: C2C12 skeletal muscle cells; assay: Glycogen content assay in C2C12 myotubes; assay type: cell-based; conditions: 30 minutes
Experimental: The C2C12 skeletal muscle cells were cultured in Dulbecco's modified Eagle's medium (DMEM; Gibco/Invitrogen, Carlsbad, Calif.), and the human hepatocellular carcinoma cell line, Hep3B, was cultured in Roswell Park Memorial Institute medium 1640 (RPMI 1640 medium; Gibco/Invitrogen, Carlsbad, Calif.). Cells were cultured at 37° C. in the humidified incubator supplied with 5% CO2. Culture mediums were supplemented with 4.5 mgmL^−1 glucose, penicillin 100 IUmL^−1, streptomycin 100 μgmL^−1 and 10% fetal bovine serum (Gibco/Invitrogen, Carlsbad, Calif.). Only C2C12 cells were then switched to 2% horse serum for 3 days after reaching the 70% confluence. Myotubes formation was achieved after 4 days of incubation, and the cells were used for subsequent experiments. Culture mediums were replaced by serum free DMEM or RPMI for 24 h before experiments (see e.g., procedure described in Sultan et al., 2006).
C2C12 and Hep3B cells were treated with 1 nM insulin, 100 μM metformin, and the assigned concentration of borapetoside A for 30 minutes. To develop the insulin resistance state of cells, C2C12 cells were incubated with IL-6 at 20 ngmL^−1 for 1 hour. Later, the cells were treated with 1 nM insulin, 100 μM metformin, and the assigned concentration of borapetoside A for 30 minutes. After the assigned treatment, cells were washed twice with phosphate buffered saline (PBS). Glycogen content was measured as previously described, with some modifications (see e.g., Savage et al., 2008). The protein concentrations of the cell lysates were determined by using Pierce BCA Protein Assay Kit (Thermo-Scientific, Rockford, Ill.). The glycogen content of each sample was normalized by total protein.

[2] = system: normal, T1DM and T2DM mice; assay: Plasma insulin levels before and after treatment; assay type: in vivo, ICR mice
Experimental: The 4-week-old male ICR mice were purchased from the Animal Center of the College of Medicine, National Taiwan University (Taipei, Taiwan) with delicate humane care. This animal study was conducted by following the University ethical guidelines and the ‘Guide for the Care and Use of Laboratory Animals’ published by the US National Institutes of Health (NIH publication no. 85-23, revised 1996). The animal experiments were approved by the Institutional Animal Care and Use Committee (IACUC) of the National Taiwan University (IACUC No. 20110073). Animals were housed in a room at the constant temperature, 22±1° C., with 12 hours light and dark cycles.
(§1) After three days of acclimatization, the mice had free access to a standard rodent chow (normal mice), a standard rodent chow after single […] streptozotocin (STZ) intraperitoneal injection (T1DM mice), and a fat-rich chow diet and fructose-sweetened water (T2DM mice) for 4 weeks. The induction of Type 1 DM was assessed and confirmed when the mice had plasma glucose levels ≧350 mgdL^−1, accompanied with polyuria, hyperphagia and decreased body weight. The induction Type 2 DM in the mice was assessed by measuring fasting plasma glucose levels and confirmed when plasma glucose level was ≧150 mgdL^−1 after the 4-week induction. The animals were assigned randomly into three groups, with seven animals in each group. In group I, the mice were treated with vehicle, 2% DMSO in normal saline, as the negative control. In group II, the mice were intraperitoneally treated with borapetoside A (0.1-10 mgkg^−1). In group Ill, the positive control, the mice received intraperitoneally metformin (300 mgkg^−1; Sigma Chemical Co., St. Louis, Mo., U.S.A.) or insulin (0.5 IUkg^−1; Insulin Actrapid® HM; Novo Nordisk, Denmark). In the acute study, mice under anesthesia received a single intraperitoneal administration of borapetoside A, negative control, or positive control. In the subacute study, mice received intraperitoneal administrations of borapetoside A, vehicle, or insulin twice a day for seven days.
Blood samples were collected from the orbital vascular plexus of the mice under anesthesia. Blood samples were then centrifuged at 13000 rpm for 5 min, and the plasma samples were collected and kept on ice prior to the assay. The plasma glucose concentration was measured by Glucose Kit Reagent (Biosystems S. A., Barcelona, Spain) following the manufacturer's instructions, and the insulin levels were estimated using mouse insulin ELISA kit (Mercodia AB, Uppsala, Sweden).

[3] = system: IR, Akt, AS160, GLUT2 and PEPCK in liver of mice with type 1 DM; assay: Western blot of insulin signaling pathway in liver after 7-day borapetoside A; assay type: in vivo, ICR mice; conditions: type 1 DM mice; 10 mgkg^−1 twice a day for 7 days
Experimental: as §1
Western blot analysis was carried out by known methods with a slight modification. Briefly, tissues were homogenized in T-PER® Tissue Protein Extraction Reagent (Pierce Biotechnology, Rockford, Ill.) with Halt™ Protease Inhibitor Single-Use Cocktail (Pierce Biotechnology, Rockford, Ill.). Liver homogenates were prepared by mechanical homogenization (Polytron PT3100, Luzernerstrasse, Switzerland). After centrifuging the homogenates at 10,000 g for 30 minutes, the protein concentrations were determined by using a BCA Protein Assay Kit (Pierce Biotechnology, Rockford, Ill.). Later, 60 μg of protein preparations were applied on 10% sodium dodecyl sulfate-polyacrylamide gel for electrophoresis and then transferred to polyvinylidene difluoride membranes (Millipore, Billerica, Mass.). The membranes were analysed by using the antibodies against phospho-insulin receptor β (IRβ) (Tyr^1345), phospho-Akt (Ser^473), phosphor-AS160 (Thr^642), AS160 (Cell Signaling Technology, Beverly, Mass.), IRβ, Akt, β-Actin (Santa Cruz Biotechnology, Santa Cruz, Calif.), GLUT2 (Abcam, Cambridge, UK), and PEPCK (a gift from Professor DK Granner), respectively. Chemiluminescence detection and image analysis was performed with UVP-Biochimie Bioimager and Lab Works software (UVP, Upland, Calif.). The intensity of each band was quantified with ImageQuant.

C[C@@]12C[C@@H](c3ccoc3)OC(=O)[C@@H]1C[C@@H]1OC(=O)[C@@]3(O)[C@@H](O[C@@H]4O[C@H](CO)[C@@H](O)[C@H](O)[C@H]4O)CC[C@@H]2[C@@]13C [Borapetoside A, borapetoside A]
fold increase of glycogen ([1]; 10^−6 mol/L): 1.49±0.15 fold
fold increase of glycogen ([1]; 10^−7 mol/L): 1.28±0.04 fold
fold increase of glycogen ([1]; 10^−8 mol/L): 1.53±0.10 fold
Plasma insulin Before-treatment ([2]; Normal mice, 0.1 mg kg^−1 group): 61.0 ± 4.6 pmol/L
Plasma insulin After-treatment ([2]; Normal mice, 0.1 mg kg^−1 i.p.): 68.3 ± 4.4 pmol/L
Plasma insulin Before-treatment ([2]; Normal mice, 0.3 mg kg^−1 group): 63.4 ± 3.9 pmol/L
Plasma insulin After-treatment ([2]; Normal mice, 0.3 mg kg^−1 i.p.): 129.4 ± 22.0 pmol/L
Plasma insulin Before-treatment ([2]; Normal mice, 1 mg kg^−1 group): 66.1 ± 5.4 pmol/L
Plasma insulin After-treatment ([2]; Normal mice, 1 mg kg^−1 i.p.): 118.8 ± 10.1 pmol/L
Plasma insulin Before-treatment ([2]; Normal mice, 3 mg kg^−1 group): 64.4 ± 3.6 pmol/L
Plasma insulin After-treatment ([2]; Normal mice, 3 mg kg^−1 i.p.): 121.2 ± 14.2 pmol/L
Plasma insulin Before-treatment ([2]; Normal mice, 10 mg kg^−1 group): 68.9 ± 1.3 pmol/L
Plasma insulin After-treatment ([2]; Normal mice, 10 mg kg^−1 i.p.): 108.2 ± 2.9 pmol/L
Plasma insulin Before-treatment ([2]; T1DM mice, 0.1 mg kg^−1 group): 22.9 ± 0.1 pmol/L
Plasma insulin After-treatment ([2]; T1DM mice, 0.1 mg kg^−1 i.p.): 22.7 ± 0.2 pmol/L
Plasma insulin Before-treatment ([2]; T1DM mice, 0.3 mg kg^−1 group): 22.9 ± 0.1 pmol/L
Plasma insulin After-treatment ([2]; T1DM mice, 0.3 mg kg^−1 i.p.): 22.7 ± 0.3 pmol/L
Plasma insulin Before-treatment ([2]; T1DM mice, 1 mg kg^−1 group): 23.1 ± 0.2 pmol/L
Plasma insulin After-treatment ([2]; T1DM mice, 1 mg kg^−1 i.p.): 23.0 ± 0.2 pmol/L
Plasma insulin Before-treatment ([2]; T1DM mice, 3 mg kg^−1 group): 23.1 ± 0.2 pmol/L
Plasma insulin After-treatment ([2]; T1DM mice, 3 mg kg^−1 i.p.): 23.0 ± 0.0 pmol/L
Plasma insulin Before-treatment ([2]; T1DM mice, 10 mg kg^−1 group): 23.1 ± 0.1 pmol/L
Plasma insulin After-treatment ([2]; T1DM mice, 10 mg kg^−1 i.p.): 23.0 ± 0.1 pmol/L
Plasma insulin Before-treatment ([2]; T2DM mice, 0.1 mg kg^−1 group): 140.5 ± 4.1 pmol/L
Plasma insulin After-treatment ([2]; T2DM mice, 0.1 mg kg^−1 i.p.): 134.5 ± 9.3 pmol/L
Plasma insulin Before-treatment ([2]; T2DM mice, 0.3 mg kg^−1 group): 133.0 ± 4.2 pmol/L
Plasma insulin After-treatment ([2]; T2DM mice, 0.3 mg kg^−1 i.p.): 149.0 ± 9.5 pmol/L
Plasma insulin Before-treatment ([2]; T2DM mice, 1 mg kg^−1 group): 126.8 ± 5.7 pmol/L
Plasma insulin After-treatment ([2]; T2DM mice, 1 mg kg^−1 i.p.): 123.7 ± 9.6 pmol/L
Plasma insulin Before-treatment ([2]; T2DM mice, 3 mg kg^−1 group): 138.3 ± 3.6 pmol/L
Plasma insulin After-treatment ([2]; T2DM mice, 3 mg kg^−1 i.p.): 184.3 ± 14.6 pmol/L
Plasma insulin Before-treatment ([2]; T2DM mice, 10 mg kg^−1 group): 134.9 ± 3.5 pmol/L
Plasma insulin After-treatment ([2]; T2DM mice, 10 mg kg^−1 i.p.): 205.3 ± 22.2 pmol/L
PEPCK expression in liver [3]: significant decrease
expression of GLUT2 in liver [3]: increased
phosphorylated AS160 in liver [3]: increased
phosphorylated Akt in liver [3]: increased
phosphorylated IR in liver [3]: increased
